Source: PubChem BioAssay (NCI)
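All cell lines were grown in 96-well plates and treated with compound for 48 hours. The concentration for 50% growth inhibition is given as GI50. TGI marks complete inhibition of growth.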

Assays:
Test in all cases: NCI-60 cell line screen, 48 h
NCI-H460 lung = system: NCI-H460 lung
DU-145 prostate = system: DU-145 prostate
SF-268 CNS = system: SF-268 CNS
MDA-MB-231 breast = system: MDA-MB-231 breast
CAKI-1 renal = system: CAKI-1 renal
OVCAR-5 ovarian = system: OVCAR-5 ovarian
MALME-3M melanoma = system: MALME-3M melanoma
COLO 205 colon = system: COLO 205 colon
MOLT-4 leukemia = system: MOLT-4 leukemia
ACHN renal = system: ACHN renal
SNB-75 CNS = system: SNB-75 CNS
CCRF-CEM leukemia = system: CCRF-CEM leukemia
SF-539 CNS = system: SF-539 CNS
OVCAR-3 ovarian = system: OVCAR-3 ovarian
UACC-62 melanoma = system: UACC-62 melanoma
SW-620 colon = system: SW-620 colon
A549 NSCLC = system: A549 NSCLC
NCI-H522 lung = system: NCI-H522 lung
NCI-H226 lung = system: NCI-H226 lung
LOX IMVI melanoma = system: LOX IMVI melanoma
NCI/ADR-RES ovarian = system: NCI/ADR-RES ovarian
HCC-2998 colon = system: HCC-2998 colon
HOP-62 NSCLC = system: HOP-62 NSCLC
PC-3 prostate = system: PC-3 prostate
EKVX NSCLC = system: EKVX NSCLC
SK-MEL-2 melanoma = system: SK-MEL-2 melanoma
OVCAR-8 ovarian = system: OVCAR-8 ovarian
RXF 393 renal = system: RXF 393 renal
K-562 leukemia = system: K-562 leukemia
SF-295 CNS = system: SF-295 CNS
UO-31 renal = system: UO-31 renal
UACC-257 melanoma = system: UACC-257 melanoma
U251 CNS = system: U251 CNS
HCT-15 colon = system: HCT-15 colon
HT29 colon = system: HT29 colon
A498 renal = system: A498 renal
SK-MEL-28 melanoma = system: SK-MEL-28 melanoma
SK-OV-3 ovarian = system: SK-OV-3 ovarian
BT-549 breast = system: BT-549 breast
M14 melanoma = system: M14 melanoma
MDA-MB-435 = system: MDA-MB-435
HCT-116 colon = system: HCT-116 colon
KM12 colon = system: KM12 colon
SNB-19 CNS = system: SNB-19 CNS
NCI-H23 lung = system: NCI-H23 lung
MCF7 breast = system: MCF7 breast
T-47D breast = system: T-47D breast
IGROV1 ovarian = system: IGROV1 ovarian
SK-MEL-5 melanoma = system: SK-MEL-5 melanoma
TK-10 renal = system: TK-10 renal
OVCAR-4 ovarian = system: OVCAR-4 ovarian
HOP-92 NSCLC = system: HOP-92 NSCLC
786-0 renal = system: 786-0 renal
SN12C renal = system: SN12C renal
RPMI-8226 leukemia = system: RPMI-8226 leukemia
HS 578T breast = system: HS 578T breast

## N#CC(C#N)=Cc1ccc(-c2ccc(-c3nc4ccccc4s3)cc2)s1
NCI-H460 lung
  GI50: 26 µM
  TGI: > 100 µM
DU-145 prostate
  GI50: 17.7 µM
  TGI: 44.8 µM
SF-268 CNS
  GI50: 25.5 µM
  TGI: > 100 µM
MDA-MB-231 breast
  GI50: 16.1 µM
  TGI: 36.9 µM
CAKI-1 renal
  GI50: 20.9 µM
  TGI: 47.4 µM
OVCAR-5 ovarian
  GI50: 14 µM
  TGI: 30.5 µM
MALME-3M melanoma
  GI50: 16.6 µM
  TGI: 54.5 µM
COLO 205 colon
  GI50: 23.7 µM
  TGI: > 100 µM
MOLT-4 leukemia
  GI50: 22.8 µM
  TGI: 68.5 µM
ACHN renal
  GI50: 13.4 µM
  TGI: 27.3 µM
SNB-75 CNS
  GI50: 37.5 µM
  TGI: > 100 µM
CCRF-CEM leukemia
  GI50: 21 µM
  TGI: 62.9 µM
SF-539 CNS
  GI50: 18.3 µM
  TGI: 36.3 µM
OVCAR-3 ovarian
  GI50: 14.9 µM
  TGI: 34.8 µM
UACC-62 melanoma
  GI50: 15.1 µM
  TGI: 30.7 µM
SW-620 colon
  GI50: 19.8 µM
  TGI: > 100 µM
A549 NSCLC
  GI50: 13.8 µM
  TGI: > 100 µM
NCI-H522 lung
  GI50: 19.4 µM
  TGI: 54 µM
NCI-H226 lung
  GI50: 14.7 µM
  TGI: 36.8 µM
LOX IMVI melanoma
  GI50: 8.5 µM
  TGI: 23.5 µM
NCI/ADR-RES ovarian
  GI50: 5.74 µM
  TGI: 22.7 µM
HCC-2998 colon
  GI50: 27.9 µM
  TGI: 65.8 µM
HOP-62 NSCLC
  GI50: 13 µM
  TGI: 34.2 µM
PC-3 prostate
  GI50: 6.23 µM
  TGI: 23.1 µM
EKVX NSCLC
  GI50: 29.6 µM
  TGI: > 100 µM
SK-MEL-2 melanoma
  GI50: 33.1 µM
  TGI: > 100 µM
OVCAR-8 ovarian
  GI50: 23.1 µM
  TGI: 72.2 µM
RXF 393 renal
  GI50: 40.5 µM
  TGI: > 100 µM
K-562 leukemia
  GI50: 17.8 µM
  TGI: 57.4 µM
SF-295 CNS
  GI50: 22.6 µM
  TGI: 59.1 µM
UO-31 renal
  GI50: 13.9 µM
  TGI: 30.2 µM
UACC-257 melanoma
  GI50: 65.3 µM
  TGI: > 100 µM
U251 CNS
  GI50: 14.9 µM
  TGI: 31.9 µM
HCT-15 colon
  GI50: 15.5 µM
  TGI: 40 µM
HT29 colon
  GI50: 29.7 µM
  TGI: > 100 µM
A498 renal
  GI50: 18.7 µM
  TGI: 41.1 µM
SK-MEL-28 melanoma
  GI50: 37.5 µM
  TGI: > 100 µM
SK-OV-3 ovarian
  GI50: 19.7 µM
  TGI: 50.5 µM
BT-549 breast
  GI50: 31.1 µM
  TGI: 85.2 µM
M14 melanoma
  GI50: 29.3 µM
  TGI: 96.2 µM
MDA-MB-435
  GI50: 25.5 µM
  TGI: 64.5 µM
HCT-116 colon
  GI50: 12.3 µM
  TGI: 31.1 µM
KM12 colon
  GI50: 19.9 µM
  TGI: 78.5 µM
SNB-19 CNS
  GI50: 30 µM
  TGI: > 100 µM
NCI-H23 lung
  GI50: 18.1 µM
  TGI: 52.9 µM
MCF7 breast
  GI50: 26.2 µM
  TGI: > 100 µM
T-47D breast
  GI50: 18.2 µM
  TGI: 73.8 µM
IGROV1 ovarian
  GI50: 4.62 µM
  TGI: 27.1 µM
SK-MEL-5 melanoma
  GI50: 11.8 µM
  TGI: 31.7 µM
TK-10 renal
  GI50: 22.7 µM
  TGI: 47.4 µM
OVCAR-4 ovarian
  GI50: 51.9 µM
  TGI: > 100 µM

## COc1ccc2c(c1)c(=O)oc1cc(OC/C(=N\O)c3ccc(F)cc3)ccc12
NCI-H460 lung
  GI50: 18.6 µM
  TGI: 53.3 µM
DU-145 prostate
  GI50: 33.3 µM
  TGI: > 100 µM
SF-268 CNS
  GI50: 24.9 µM
  TGI: > 100 µM
MDA-MB-231 breast
  GI50: 18 µM
  TGI: 43.4 µM
CAKI-1 renal
  GI50: 19.9 µM
  TGI: 47.8 µM
OVCAR-5 ovarian
  GI50: 34.4 µM
  TGI: > 100 µM
MALME-3M melanoma
  GI50: 16.3 µM
  TGI: 44.2 µM
COLO 205 colon
  GI50: 15.6 µM
  TGI: 34.6 µM
MOLT-4 leukemia
  GI50: 18.1 µM
  TGI: > 100 µM
ACHN renal
  GI50: 21 µM
  TGI: 55.4 µM
SNB-75 CNS
  GI50: 18.5 µM
  TGI: 47.9 µM
CCRF-CEM leukemia
  GI50: 7.07 µM
  TGI: > 100 µM
SF-539 CNS
  GI50: 21.4 µM
  TGI: 40.9 µM
HOP-92 NSCLC
  GI50: 24.9 µM
  TGI: 72.2 µM
OVCAR-3 ovarian
  GI50: 20.4 µM
  TGI: 47.4 µM
UACC-62 melanoma
  GI50: 15.1 µM
  TGI: 31.2 µM
SW-620 colon
  GI50: 26.4 µM
  TGI: 96.3 µM
A549 NSCLC
  GI50: 27.8 µM
  TGI: > 100 µM
NCI-H522 lung
  GI50: 14.9 µM
  TGI: 37.8 µM
NCI-H226 lung
  GI50: 37 µM
  TGI: > 100 µM
LOX IMVI melanoma
  GI50: 17.8 µM
  TGI: 33 µM
NCI/ADR-RES ovarian
  GI50: 18.2 µM
  TGI: 49.7 µM
HCC-2998 colon
  GI50: 16.4 µM
  TGI: 33.5 µM
HOP-62 NSCLC
  GI50: 18.9 µM
  TGI: 41.8 µM
PC-3 prostate
  GI50: 24.1 µM
  TGI: 79 µM
EKVX NSCLC
  GI50: 30.2 µM
  TGI: > 100 µM
SK-MEL-2 melanoma
  GI50: 19.1 µM
  TGI: 47.4 µM
OVCAR-8 ovarian
  GI50: 27.3 µM
  TGI: 97.5 µM
786-0 renal
  GI50: 13.6 µM
  TGI: 33.7 µM
RXF 393 renal
  GI50: 21.8 µM
  TGI: 58.6 µM
K-562 leukemia
  GI50: 25.6 µM
  TGI: > 100 µM
SN12C renal
  GI50: 16.9 µM
  TGI: 34.3 µM
SF-295 CNS
  GI50: 20.2 µM
  TGI: 49.1 µM
UO-31 renal
  GI50: 14.3 µM
  TGI: 28.9 µM
UACC-257 melanoma
  GI50: 25.4 µM
  TGI: 91.1 µM
RPMI-8226 leukemia
  GI50: 16.7 µM
  TGI: 56.4 µM
U251 CNS
  GI50: 20.2 µM
  TGI: 48.1 µM
HCT-15 colon
  GI50: 20.5 µM
  TGI: 61.2 µM
HT29 colon
  GI50: 15.5 µM
  TGI: 36.6 µM
A498 renal
  GI50: 16.7 µM
  TGI: 35.3 µM
SK-MEL-28 melanoma
  GI50: 15.7 µM
  TGI: 31 µM
SK-OV-3 ovarian
  GI50: 30.4 µM
  TGI: > 100 µM
BT-549 breast
  GI50: 18.8 µM
  TGI: 44.2 µM
M14 melanoma
  GI50: 15.7 µM
  TGI: 30.7 µM
MDA-MB-435
  GI50: 12.6 µM
  TGI: 36.2 µM
HCT-116 colon
  GI50: 14.2 µM
  TGI: 28 µM
KM12 colon
  GI50: 19.7 µM
  TGI: 43.8 µM
SNB-19 CNS
  GI50: 12.2 µM
  TGI: 58.8 µM
NCI-H23 lung
  GI50: 20.4 µM
  TGI: 54.3 µM
MCF7 breast
  GI50: 19.8 µM
  TGI: 66 µM
T-47D breast
  GI50: 28.4 µM
  TGI: > 100 µM
IGROV1 ovarian
  GI50: 20.5 µM
  TGI: 50.5 µM
HS 578T breast
  GI50: 27 µM
  TGI: 75.6 µM
SK-MEL-5 melanoma
  GI50: 16.6 µM
  TGI: 30.8 µM
TK-10 renal
  GI50: 17.5 µM
  TGI: 52.8 µM
OVCAR-4 ovarian
  GI50: 18.5 µM
  TGI: 44.5 µM
